One experiment deals with T1, CRH-1 receptor (Homo sapiens, UniProt P34998).
T1 sequence (P34998 24-415): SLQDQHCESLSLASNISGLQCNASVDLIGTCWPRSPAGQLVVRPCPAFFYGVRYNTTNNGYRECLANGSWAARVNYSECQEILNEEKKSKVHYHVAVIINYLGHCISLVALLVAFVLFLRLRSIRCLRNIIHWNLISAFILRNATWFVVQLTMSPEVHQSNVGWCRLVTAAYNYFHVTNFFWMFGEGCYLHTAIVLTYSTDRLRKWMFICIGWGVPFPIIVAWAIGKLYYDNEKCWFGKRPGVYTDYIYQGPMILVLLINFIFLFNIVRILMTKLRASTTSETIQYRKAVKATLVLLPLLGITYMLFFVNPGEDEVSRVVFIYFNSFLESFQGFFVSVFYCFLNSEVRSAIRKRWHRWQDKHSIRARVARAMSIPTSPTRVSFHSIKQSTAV
The experiment in a line: Binding affinity of h/r-CRH analogues to the CRH-1 receptor. The conditions noted are these: averages from 3 experiments performed in duplicates.

The next experiment has as its target T2, CRH-R1 (Homo sapiens, UniProt P34998).
T2 construct: expressed in transfected cells; host or cells: LLC-PK1 cells (electroporation)
T2 sequence (P34998 24-415): T1 sequence (P34998 24-415)
Description: Stimulation of cyclic AMP generation (CRE-luciferase activity) in LLC-PK1 cells cotransfected with CRH-R1 and CRE. The format is cell-based. To be noted: LLC-PK1 cells cotransfected with CRH-R1 and CRE cDNA; peptides 10^-6 to 10^-11 M, 7 hours at 37°C; luciferase read-out; maximum response compared to h/r-CRH; read-out: Biological activity: % Response max/CRH. As for the experimental part:
The capacity of CRH and related peptide analogues to stimulate cyclic AMP generation was monitored in LLC-PK1 cells cotransfected with cDNA of CRH-R1 and CRE. For transfection the method of electroporation was applied and 40 millions of LLC-PK1 cells were prepared and washed in cytomix 1X transfection medium. The electroporation medium consisted of 1000 μL of cytomix 2X, 864 μL of sterilized water, 80 μL of ATP 50 mM, 3.2 mg of glutathion, 20 μg of CRH-R1 cDNA and 20 μg of CRE cDNA. 500 μL of the above solution were transferred in the electroporation device and after remaining for 10 minutes a standard growth medium was added (DMEM without phenol red with glutamine, antibiotics, and 10% FCS) to a total volume of 50 mL. The suspension was distributed in […] of 24 wells each, by adding 1 mL per well, and was allowed to pre-incubate for 24 hours. The growth medium was aspirated and replaced with fresh one followed by another preincubation for 24 hours. The cells were then challenged with graded concentrations (10^−6 to 10^−11 M) of the test peptides and incubated for 7 hours at 37°C. After that, the medium with the added peptides was removed, the cells were washed twice with PBS 1X, 100 μL of lysis buffer 1X per well were added, the plates were left at room temperature for 30 minutes and then stored at −80°C overnight. The luciferace activity was measured with the use of a luminometer after the addition of 50 μL of lysed cell preparation and 50 μL of bioluminescence medium per well in a 96 well plate luminometer.

The conditions of experiment [1]: times more potent than α-helical CRH; cited from earlier work. An excerpt:
Introduction of D-amino acids leading to stabilization of β-turns, can provide analogues with increased potency but not all residues are susceptible to such an alteration, leading even to the opposite effect. However, the D-Phe^12 substitution has proven to be a favorable one especially combined with other advantageous modifications such as the replacement of Met at positions 21 and 38 with Nle.

Non-standard residues stand in square brackets, D forms with d. No end group written: not given here. *: point of attachment. Aib = CC(C)(N)C(=O)O; Propyl = CCC*

One may read the IC50 as the concentration that gives 50% inhibition.

“SEEPPISLDLT[dF]HL[Aib]REVLEMARAEQLAQQAHSNRKLMEII-NH2 [Analogue 2, [D-Phe^12, Aib^15]CRH]”: the IC50 at CRH-1 receptor was 0.0084 µM. Further, at CRH-R1, the Emax is 60%. In the case of “SEEPPISLDLT[dF]HLLREVLEMARAEQLAQQAHSNRKLC(Propyl)EII-NH2 [Analogue 4, [D-Phe^12, Cys(Pr)^38]CRH]”, the IC50 at CRH-1 receptor turned out to be 0.035 µM. Further, at CRH-R1, the Emax amounted to 60%. Turning to [D-Phe^12]CRH, the “Potency relative to α-helical CRH” value in experiment [1] is given as “twice”.

“SEEPPISLDLT[dF]H[Aib]LREVLEMARAEQLAQQAHSNRKLMEII-NH2 [Analogue 1, [D-Phe^12, Aib^14]CRH]” had an IC50 at CRH-1 receptor of 0.226 µM. Further, the Emax at CRH-R1 was 60%. As for [D-Phe^12, Nle^21, 38]CRH21-41, the “Potency relative to α-helical CRH” value in experiment [1] was 15 times.
